Experimental data: patent publication US6852723B2, “Aralkyl substituted piperazine compounds” (CV Therapeutics, Inc., priority 2000, dated 2005)

Assays:
[1] = Metabolic stability in human liver S-9 fractions (LC/MS of parent remaining); details: for Liver S-9 stability factor: % parent remaining after 30 min at 37 C divided by average % ranolazine remaining (57%), 10 μM compound, 2 mg/mL S9
Procedure: Metabolic Stability: As a measure of metabolic stability the compounds of this invention were incubated with human liver S-9 microsomal fractions. After, 30 minutes at 37 C., the amount of parent drug remaining was determined using LC-mass spec. The response factors for each compound was determined by establishing a standard curve and using an internal standard during the analysis of the samples. […] The compounds of this invention were assayed as described in the protocol below and the percentage of parent remaining was divided by the average % of ranolazine remaining (57%) affording a metabolic stability factor.
The purpose of this experiment is to compare the percentages remaining for compounds of this invention with the percentage remaining for ranolazine after 30 minutes of incubation with human liver S9 fractions.
The following reagents were used; Potassium phosphate, 0.5M pH 74. (incubation buffer), kept at room temperature; 0.05M MgCl2 kept at 4° C.; β-Nicotinamide adenine dinucleotide phosphate, tetrasodium salt, reduced form (NADPH), 0.02M solution in water (˜16.6 mg/mL) from Sigma Lot # 79H7044 prepared on day of use.
Incubation mixtures were prepared as follows:
Combine all components with incubation buffer and re-pipette 200 μL/tube+25 μL of the compound being tested along with 25 μL of S-9.
After 5 min of pre-incubation at 37° C., at 0 and 30 min after starting the reaction, a 50 μl aliquot of the incubation mixture was removed and added to 100 μL of 9:1 acetonitrile: methanol containing the internal standard.
The mixture was centrifuged and a 100 μL aliquot of the supernatant was diluted in 1 mL of solvent C (0.1% Formic Acid in water). Then samples were analyzed for change between the ratio of compound to internal standard at time zero and 30 minutes by LC/MS (injected 10 μL).
Samples were analyzed for the starting compounds and potential metabolite/s by LC/MS using an internal standard on a Micromass platform mass spec with a Keystone Inc. BDS ODS-C18 column with a flow rate of 0.25 ml/min.

[2] = test system: mitochondrial fatty acid oxidation using palmitoyl carnitine as substrate; assay: Palmitoyl carnitine oxidation in isolated rat heart mitochondria (14C bicarbonate trapped); assay type: biochemical; details: 15 min at 30° C.
Procedure: (§1) Rat heart mitochodria were isolated by the method of Nedergard and Cannon (Methods in Enzymol. 55, 3, 1979).
(§2) Palmitoyl Carnitine Oxidation—The Palmitoyl carnitine oxidation was carried out in a total volume of 100 microliters containing the following agents: 110 mM KCl, 33 mM Tris buffer at pH 8, 2 mM KPi, 2 mM MgCl2, 0.1 mM EDTA, 0.1mg/ml of defatted BSA, 0.5 mM malic acid, 3 mM ADP, 52 micrograms of mitochondrial protein, and 43 microM 1-C14 palmitoyl carnitine (Sp. Activity 60 mCi/mmole; 20 microCi/ml, using 5 microliters per assay). The compounds of this invention were added in a DMSO solution at the following concentrations: 100 microM, 30 microM, and 3 microM. In each assay, a DMSO control was used. After 15 min at 30° C., the enzymatic reaction was centrifuged (20,000 g for 1 min), and 70 microliters of the supernatant was added to an activated reverse phase silicic acid column (approximately 0.5 ml of silicic acid). The column was eluted with 2 ml of water, and 0.5 ml of the eluent was used for scintillation counting to determine the amount of C^14 trapped as C^14 bicarbonate ion. The data are presented as % activity of control.

[3] = test system: mitochondrial fatty acid oxidation using palmitoyl CoA as substrate; assay: Palmitoyl CoA oxidation in isolated rat heart mitochondria (14C bicarbonate trapped); assay type: biochemical; details: 15 min at 30° C.
Procedure: as §1
as §2, with “Palmitoyl CoA oxidation—The” for “Palmitoyl Carnitine Oxidation—The”, “Palmitoyl CoA” for “Palmitoyl carnitine”, “EDTA, 14.7 microM” for “EDTA, 0.1mg/ml of”, “acid, 13 mM carnitine, 1” for “acid, 3”, “and 16” for “and 43”, “palmitoyl CoA” for “palmitoyl carnitine”

| Structure (SMILES) | Liver S-9 stability factor [1] | Palmitoyl CoA oxidation activity (% of DMSO control) ([3]; 100 μM compound) [%] | other results |
| --- | --- | --- | --- |
| Cc1cccc(C)c1NC(=O)CN1CCN(CC(O)Cc2ccc3c(c2)OCO3)CC1 (stereo not shown) [Compound 7, 2-[4-(3-Benzo[1,3]dioxol-5-yl-2-hydroxy-propyl)-piperazin-1-yl]-N-(2,6-dimethyl-phenyl)-acetamide] | 1.46 | – | – |
| Cc1cccc(C)c1NC(=O)CN1CCN(CC(O)CCc2ccccc2)CC1 (stereo not shown) [Compound 9, N-(2,6-dimethylphenyl)-2-[4-(2-hydroxy-4-phenylbutyl)piperazinyl]acetamide] | 1.18 | 84 | Palmitoyl CoA oxidation activity (% of DMSO control) ([3]; 30 μM compound): 84% |
| COc1ccccc1CC(O)CN1CCN(CC(=O)Nc2c(C)cccc2C)CC1 (stereo not shown) [Compound 10, N-(2,6-dimethylphenyl)-2-{4-[2-hydroxy-3(2-methoxyphenyl)-propyl]piperazinyl}acetamide] | 1.03 | – | – |
| COc1ccc(CC(O)CN2CCN(CC(=O)Nc3c(C)cccc3C)CC2)cc1 (stereo not shown) [Compound 11, N-(2,6-dimethylphenyl)-2-{4-[2-hydroxy-3-(4-methoxyphenyl)propyl]piperazinyl}acetamide] | 1.33 | 83 | Palmitoyl CoA oxidation activity (% of DMSO control) ([3]; 30 μM compound): 92% |
| Cc1cccc(C)c1NC(=O)CN1CCN(CC(O)Cc2ccccc2)CC1 (stereo not shown) [Compound 12, N-(2,6-dimethylphenyl)-2-{4-[2-hydroxy-3-phenylpropyl]piperazinyl}acetamide] | 1.38 | 42 | Mitochondrial palmitoyl carnitine oxidation, % activity of DMSO control ([2]; 100 μM compound): 56%; Palmitoyl CoA oxidation activity (% of DMSO control) ([3]; 30 μM compound): 95% |
| COc1ccc(CCC(O)CN2CCN(CC(=O)Nc3c(C)cccc3C)CC2)cc1 (stereo not shown) [Compound 16, N-(2,6-dimethylphenyl)-2-{4-[4-(4-methoxyphenyl)-2-hydroxybutyl]piperazinyl}acetamide] | – | 37 | – |
| Cc1cccc(C)c1NC(=O)CN1CCN(CC(O)CCc2ccc(C(C)(C)C)cc2)CC1 (stereo not shown) [Compound 19, 2-(4-{4-[4-(tert-butyl)phenyl]-2-hydroxybutyl}piperazinyl)-N-(2,6-dimethylphenyl)acetamide] | – | 35 | – |
| Cc1cccc(C)c1NC(=O)CN1CCN(CC(O)CCc2ccccc2F)CC1 (stereo not shown) [Compound 20, N-(2,6-dimethylphenyl)-2-{4-[4-(2-fluorophenyl)-2-hydroxybutyl]piperazinyl}acetamide] | – | 56 | – |
| Cc1cccc(C)c1NC(=O)CN1CCN(CC(O)CCc2ccc(C(F)(F)F)cc2)CC1 (stereo not shown) [Compound 21, N-(2,6-dimethylphenyl)-2-(4-{2-hydroxy-4-[4-(trifluoromethyl)phenyl]butyl}piperazinyl)acetamide] | – | 56 | – |

The next lines start with results.

| Liver S-9 stability factor [1] | Structure (SMILES) | Palmitoyl CoA oxidation activity (% of DMSO control) ([3]; 100 μM compound) [%] | other results |
| --- | --- | --- | --- |
| 1.0 | COc1ccccc1OCC(O)CN1CCN(CC(=O)Nc2c(C)cccc2C)CC1 (racemic) [Ranolazine, (±)-N-(2,6-dimethylphenyl)-4-[2-hydroxy-3-(2-methoxyphenoxy)-propyl]-1-piperazineacetamide, reference compound] | 75 | percentage of ranolazine remaining at the 30 minute time point ([1]; human liver S-9, 30 minutes at 37 C, average of five experiments): 57%; Mitochondrial palmitoyl carnitine oxidation, % activity of DMSO control ([2]; 30 μM compound): 98%; Mitochondrial palmitoyl carnitine oxidation, % activity of DMSO control ([2]; 100 μM compound): 63%; Palmitoyl CoA oxidation activity (% of DMSO control) ([3]; 30 μM compound): 90% |
| 0.10 | Cc1cccc(C)c1NC(=O)CN1CCN(CC(O)Cc2cccc3ccccc23)CC1 (stereo not shown) [Compound 13, N-(2,6-dimethylphenyl)-2-[4-(2-hydroxy-3-naphthylpropyl)piperazinyl]acetamide] | – | – |
| 0.71 | Cc1cccc(C)c1NC(=O)CN1CCN(CC(O)CCc2c(F)cccc2F)CC1 (stereo not shown) [Compound 17, 2-{4-[4-(2,6-difluorophenyl)-2-hydroxybutyl]piperazinyl}-N-(2,6-dimethylphenyl)acetamide] | 78 | – |
| 0.68 | Cc1cccc(C)c1NC(=O)CN1CCN(CC(O)CCc2ccccc2Cl)CC1 (stereo not shown) [Compound 18, N-(2,6-dimethylphenyl)-2-{4-[4-(2-chlorophenyl)-2-hydroxybutyl]piperazinyl}acetamide] | 78 | – |
| 1.49 | Cc1cccc(C)c1NC(=O)C(C)(C)N1CCN(CC(O)Cc2ccc3c(c2)OCO3)CC1 (stereo not shown) [Compound 22] | – | – |
| 0.5 | Cc1cccc(C)c1NC(=O)C(C)(C)N1CCN(CC(O)Cc2ccccc2)CC1 (stereo not shown) [Compound 23, N-(2,6-Dimethyl-phenyl)-2-[4-(2-hydroxy-3-phenyl-propyl)-piperazin-1-yl]-isobutyramide] | – | – |
| 1.05 | COc1cc(CC(O)CN2CCN(CC(=O)Nc3c(C)cccc3C)CC2)cc(OC)c1OC (stereo not shown) [Compound 24, N-(2,6-dimethylphenyl)-2-{4-[2-hydroxy-3-(3,4,5-trimethoxyphenyl)prophyl]piperazinyl}acetamide] | 72 | – |
